According to PubChem BioAssay (NCI):
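Exposure lasted 48 hours, with cells grown in 96-well plates and compounds tested at five concentrations. GI50 = concentration required for 50% inhibition of growth. TGI denotes the concentration required for complete inhibition of growth.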

Assays:
Experiment in all cases: NCI anticancer screen, dose series, 48 h
HS 578T breast = tested on: HS 578T breast
RPMI-8226 leukemia = tested on: RPMI-8226 leukemia
TK-10 renal = tested on: TK-10 renal
A549 NSCLC = tested on: A549 NSCLC
MDA-MB-435 = tested on: MDA-MB-435
HL-60(TB) leukemia = tested on: HL-60(TB) leukemia
SK-MEL-5 melanoma = tested on: SK-MEL-5 melanoma
SF-268 CNS = tested on: SF-268 CNS
K-562 leukemia = tested on: K-562 leukemia
NCI-H460 lung = tested on: NCI-H460 lung
IGROV1 ovarian = tested on: IGROV1 ovarian
UO-31 renal = tested on: UO-31 renal
SK-OV-3 ovarian = tested on: SK-OV-3 ovarian
EKVX NSCLC = tested on: EKVX NSCLC
MCF7 breast = tested on: MCF7 breast
U251 CNS = tested on: U251 CNS
HOP-92 NSCLC = tested on: HOP-92 NSCLC
SF-539 CNS = tested on: SF-539 CNS
T-47D breast = tested on: T-47D breast
HCT-116 colon = tested on: HCT-116 colon
CAKI-1 renal = tested on: CAKI-1 renal
COLO 205 colon = tested on: COLO 205 colon
DU-145 prostate = tested on: DU-145 prostate
MOLT-4 leukemia = tested on: MOLT-4 leukemia
KM12 colon = tested on: KM12 colon
SR leukemia = tested on: SR leukemia
SW-620 colon = tested on: SW-620 colon
UACC-62 melanoma = tested on: UACC-62 melanoma
SK-MEL-28 melanoma = tested on: SK-MEL-28 melanoma
NCI-H23 lung = tested on: NCI-H23 lung
HOP-62 NSCLC = tested on: HOP-62 NSCLC
SN12C renal = tested on: SN12C renal
NCI-H522 lung = tested on: NCI-H522 lung
HT29 colon = tested on: HT29 colon
OVCAR-3 ovarian = tested on: OVCAR-3 ovarian
RXF 393 renal = tested on: RXF 393 renal
NCI-H226 lung = tested on: NCI-H226 lung
M14 melanoma = tested on: M14 melanoma
MALME-3M melanoma = tested on: MALME-3M melanoma
MDA-MB-231 breast = tested on: MDA-MB-231 breast
SNB-75 CNS = tested on: SNB-75 CNS
NCI/ADR-RES ovarian = tested on: NCI/ADR-RES ovarian
OVCAR-5 ovarian = tested on: OVCAR-5 ovarian
SNB-19 CNS = tested on: SNB-19 CNS
SF-295 CNS = tested on: SF-295 CNS
PC-3 prostate = tested on: PC-3 prostate
LOX IMVI melanoma = tested on: LOX IMVI melanoma
A498 renal = tested on: A498 renal
HCT-15 colon = tested on: HCT-15 colon
ACHN renal = tested on: ACHN renal
HCC-2998 colon = tested on: HCC-2998 colon
OVCAR-8 ovarian = tested on: OVCAR-8 ovarian
UACC-257 melanoma = tested on: UACC-257 melanoma
786-0 renal = tested on: 786-0 renal

## NC1=CC(=O)C(=O)c2ccccc21
HS 578T breast
  GI50: 12.1 µM
  TGI: 40.6 µM
RPMI-8226 leukemia
  GI50: 11.2 µM
  TGI: 53.2 µM
TK-10 renal
  GI50: 16.7 µM
  TGI: 47.5 µM
A549 NSCLC
  GI50: 28.2 µM
  TGI: 97.6 µM
MDA-MB-435
  GI50: 1840 nM
  TGI: 3.41 µM
HL-60(TB) leukemia
  GI50: 11.9 µM
  TGI: 43.8 µM
SK-MEL-5 melanoma
  GI50: 14.7 µM
  TGI: 28 µM
SF-268 CNS
  GI50: 18.8 µM
  TGI: 62.3 µM
K-562 leukemia
  GI50: 20.6 µM
  TGI: > 100 µM
NCI-H460 lung
  GI50: 33.8 µM
  TGI: > 100 µM
IGROV1 ovarian
  GI50: 19.7 µM
  TGI: 39.5 µM
UO-31 renal
  GI50: 11.5 µM
  TGI: 35.6 µM
SK-OV-3 ovarian
  GI50: 47.6 µM
  TGI: > 100 µM
EKVX NSCLC
  GI50: 18.3 µM
  TGI: 55.8 µM
MCF7 breast
  GI50: 13.2 µM
  TGI: 29.8 µM
U251 CNS
  GI50: 19.3 µM
  TGI: 46.4 µM
HOP-92 NSCLC
  GI50: 30 µM
  TGI: 93.8 µM
SF-539 CNS
  GI50: 21.5 µM
  TGI: 40.9 µM
T-47D breast
  GI50: 14.2 µM
  TGI: 46.2 µM
HCT-116 colon
  GI50: 12.7 µM
  TGI: 28 µM
CAKI-1 renal
  GI50: 19.7 µM
  TGI: 53.3 µM
COLO 205 colon
  GI50: 26.6 µM
  TGI: > 100 µM
DU-145 prostate
  GI50: 17.9 µM
  TGI: 45.4 µM
MOLT-4 leukemia
  GI50: 22.4 µM
  TGI: > 100 µM
KM12 colon
  GI50: 18.2 µM
  TGI: 53.4 µM
SR leukemia
  GI50: 23.3 µM
  TGI: > 100 µM
SW-620 colon
  GI50: 17.6 µM
  TGI: 38.4 µM
UACC-62 melanoma
  GI50: 3.33 µM
  TGI: 15.7 µM
SK-MEL-28 melanoma
  GI50: 8.81 µM
  TGI: 22.3 µM
NCI-H23 lung
  GI50: 13.2 µM
  TGI: 34.6 µM
HOP-62 NSCLC
  GI50: 18 µM
  TGI: 40.7 µM
SN12C renal
  GI50: 2770 nM
  TGI: 17.4 µM
NCI-H522 lung
  GI50: 16.6 µM
  TGI: 38.2 µM
HT29 colon
  GI50: 31.9 µM
  TGI: 94.3 µM
OVCAR-3 ovarian
  GI50: 12.4 µM
  TGI: 29.9 µM
RXF 393 renal
  GI50: 24.3 µM
  TGI: 71.5 µM
NCI-H226 lung
  GI50: 18.8 µM
  TGI: 42.1 µM
M14 melanoma
  GI50: 9.59 µM
  TGI: 21.3 µM
MALME-3M melanoma
  GI50: 11 µM
  TGI: 25.7 µM
MDA-MB-231 breast
  GI50: 11 µM
  TGI: 30.9 µM
SNB-75 CNS
  GI50: 13.8 µM
  TGI: 27.1 µM
NCI/ADR-RES ovarian
  GI50: 12.7 µM
  TGI: 53.3 µM
OVCAR-5 ovarian
  GI50: 18.9 µM
  TGI: 41.1 µM
SNB-19 CNS
  GI50: 20.4 µM
  TGI: 79.9 µM
SF-295 CNS
  GI50: 12.7 µM
  TGI: 33.4 µM
PC-3 prostate
  GI50: 17.9 µM
  TGI: 70.5 µM
LOX IMVI melanoma
  GI50: 15.9 µM
  TGI: 39.7 µM
A498 renal
  GI50: 79.2 µM
  TGI: > 100 µM
HCT-15 colon
  GI50: 25.1 µM
  TGI: > 100 µM
ACHN renal
  GI50: 16.2 µM
  TGI: 50.1 µM
HCC-2998 colon
  GI50: 43.9 µM
  TGI: > 100 µM
OVCAR-8 ovarian
  GI50: 14.8 µM
  TGI: 47.3 µM
UACC-257 melanoma
  GI50: 5.63 µM
  TGI: 18.2 µM
786-0 renal
  GI50: 25 µM
  TGI: 79.8 µM
